Results published in patent publication US4125500A, “Cyclic phosphites of sugar alcohols and polymers stabilized therewith” (Hoechst Aktiengesellschaft, priority 1976, dated 1978).

Assays:
[1] = stability to hydrolysis (boiling in deionized water, titration of liberated phosphorous acid); format: physicochemical
Procedure: The stability to hydrolysis was tested according to the process disclosed in DT-OS 2,144,181, pages 7/8. 5.0 g each of the respective phosphite were boiled for 20 and 60 minutes in 100 ml of deionized water. The mixture was then allowed to cool, filtered to remove residues, if any, and in the filtrate the liberated phosphorous acid was titrated with 0.1N KOH against bromophenol blue.
In the following table is indicated the degree of hydrolysis determined under the specified conditions as quotient of the actual consumption of KOH and the theoretically possible consumption with a complete hydrolysis.

[2] = dynamic heat stability (rolling stability) in PVC, discoloration of rough sheet; conditions: 180° C, two roll mill, 0.5 part phosphite
Procedure: (§1) The parts in the following description are parts by weight.
(§2) Each time 100 parts of a mass polyvinyl chloride having a K value of 60 were intimately mixed with
0.2 part of 2-phenyl-indole,
3.0 parts of epoxidized soybean oil
0.3 part of stearyl stearate
0.5 part of glycerol monostearate and
(§3) 0.5 part of the respective phosphite of the invention.
To measure the dynamic heat stability (rolling stability) the mixtures were rolled on a two roll mill at 180° C. and with 20 revolutions per minute. At intervals of 10 minutes samples were taken from the rough sheet and the color of the samples was compared with the colors of a proper color chart. Rolling was continued until the rough sheet had turned black.
In the color chart used the individual notes have the following meaning:
4 = dark yellow-brown color

[3] = static heat stability (furnace stability) in PVC, time until black coloration; conditions: heating cabinet with air circulation, 0.5 part phosphite
Procedure: as §1, §2
0.2 part of 2-phenyl-indole,
3.0 parts of epoxidized soybean oil
0.3 part of stearyl stearate
0.5 part of glycerol monostearate and
as §3
In order to measure the static heat stability (furnace stability) a rough sheet was prepared as described above and the sheet was rolled for a further 10 minutes at 180° C. Flat samples having a diameter of about 30 mm were punched out of the rough sheet removed from the mill and having a thickness of about 0.5 mm, the samples were wrapped in aluminum foil and heated to 180° C. in a heating cabinet with air circulation. At intervals of 10 minutes each a sample was taken from the cabinet and the color thereof was compared with that of the color chart.

[4] = boiling deionized water, 20 min
[5] = 20 minutes boiling in deionized water
[6] = 60 minutes boiling in deionized water

Compound | degree of hydrolysis after 20 minutes [1, 4] | degree of hydrolysis after 60 minutes ([1]; boiling deionized water, 1 h) | dynamic (rolling) stability, discoloration of rough sheet after a rolling time of 10' [2] | dynamic (rolling) stability, discoloration of rough sheet after a rolling time of 20' [2] | dynamic (rolling) stability, discoloration of rough sheet after a rolling time of 30' [2] | dynamic (rolling) stability, discoloration of rough sheet after a rolling time of 40' [2] | dynamic (rolling) stability, discoloration of rough sheet after a rolling time of 50' [2] | dynamic (rolling) stability, discoloration of rough sheet after a rolling time of 60' [2] | dynamic (rolling) stability, discoloration of rough sheet after a rolling time of 70' [2] | static (furnace) stability, black coloration at 180° C after [3] | dynamic (rolling) stability, discoloration of rough sheet after a rolling time of 80' [2] | degree of hydrolysis after 20 minutes [1, 5] | degree of hydrolysis after 60 minutes [1, 6]
Di-behenyl-erythrityl diphosphite [Example 8] | 7 % of theory | 11 % of theory | 1 | 1-2 | 1-2 | 2 | 3 | 4 | 5 | 60 ' | – | – | –
Tri-stearyl-sorbityl triphosphite [Example 1] | 7 % of theory | 17 % of theory | 1 | 1-2 | 2 | 2-3 | 3 | 3 | 4 | – | 4 | – | –
trisnonylphenyl phosphite [reference compound] | – | – | 1 | 2 | 2-3 | 3 | 5 | – | – | 40 ' | – | 57 % of theory | 92 % of theory
Tri-stearyl-mannityl-triphosphite [Example 2] | 5 % of theory | 10 % of theory | 1 | 1-2 | 2 | 2-3 | 3 | 3 | 4 | – | 4 | – | –
CCCCCCCCCCCCCCCCCCOP1OCC2(CO1)COP(OCCCCCCCCCCCCCCCCCC)OC2 (stereo not drawn) [distearyl-pentaerthrityl-diphosphite, distearyl-pentaerythritol diphosphite, reference compound] | – | – | 2-3 | 2-3 | 3 | 3 | 4 | 5 | – | 50 ' | – | 55 % of theory | 68 % of theory
Tri-behenyl-mannityl triphosphite [Example 5] | 7 % of theory | 23 % of theory | 1 | 1-2 | 2 | 2 | 3 | 3 | 4 | – | 5 | – | –
Tri-stearyl-dulcityl-triphosphite [Example 3] | – | – | 1 | 1-2 | 2 | 3 | 4 | 5 | – | 60 ' | – | – | –
Tristearyl-sorbityl diphosphite monophosphate [Example 25] | – | – | – | – | – | – | – | – | – | – | – | 9 % of theory | –
c1ccc(OP(Oc2ccccc2)Oc2ccccc2)cc1 [triphenyl phosphite, reference compound] | – | – | 1 | 2 | 2-3 | 5 | – | – | – | 50 ' | – | 84 % of theory | 100 % of theory
distearyl-sorbityl diphosphite [Example 10] | – | – | 1 | 1-2 | 2 | 3 | 4 | 5 | – | 60 ' | – | – | –
Tri-behenyl-sorbityl triphosphite [Example 4] | 10 % of theory | – | 1 | 1-2 | 2 | 2 | 3 | 3 | 4 | – | 5 | – | –
distearyl-monododecyl-mercapto-sorbityl triphosphite [Example 23] | – | – | 2 | 3 | 3 | 3 | 3-4 | 4 | 5 | 60 ' | – | – | –
